In patent US20250280828A1, “FUNGICIDAL COMPOSITIONS” (SYNGENTA CROP PROTECTION AG, priority 2020, published 2025):

System: Phakopsora pachyrhizi
Assay: Preventative control against Phakopsora pachyrhizi (Asian soybean rust) / soybean / leaf disc
Type: in vivo
Settings: foliar, evaluation 11 to 14 days after inoculation, read-out: Combined inhibition (observed); for inhibition at 0.4 g/ha: single active ingredient at 0.4 g/ha; for inhibition at 0.8 g/ha: single active ingredient at 0.8 g/ha
Description: Whole soybean plants are treated with the recited compositions of active ingredients four weeks after planting. One day after spraying application leaf discs are cut from the first trifoliate leaf. Five repetitions at each rate are conducted. The leaf discs are inoculated with Phakopsora pachyrhizi one day after treatment. Evaluation of the leaf discs is conducted 11 to 14 days after inoculation and the biological activity is derived from the relation of the treated compared to untreated, infested check plants. The rates of the active ingredients used are given in Tables 1 to 6 as g active ingredient (a.i.)/ha. Results from the tests outlined above are shown below in Tables 1 to 6. […] According to COLBY, in mathematical terms the synergism factor SF corresponds to O/E. In the agricultural practice an SF of […] indicates significant improvement over the purely complementary addition of activities (expected activity), while an SF of ≤0.9 in the practical application routine signals a loss of activity compared to the expected activity.

## CCC(=O)Oc1c(OC)ccnc1C(=O)N[C@@H](C)C(=O)O[C@@H](C)[C@@H](C)c1ccccc1C [A.03, [(1S,2S)-1-methyl-2-(o-tolyl)propyl](2S)-2-[(4-methoxy-3-propanoyloxy-pyridine-2-carbonyl)amino]propanoate]
Single active ingredient at 0.2 g/ha
  inhibition at 0.2 g/ha: 0%
  inhibition at 0.4 g/ha: 10%
  inhibition at 0.8 g/ha: 42%

## CCNC(=O)N(Cc1ccc(-c2noc(C(F)(F)F)n2)cc1)OC [B.06, 3-ethyl-1-methoxy-1-[[4-[5-(trifluoromethyl)-1,2,4-oxadiazol-3-yl]phenyl]methyl]urea]
  inhibition at 0.4 g/ha: 22%

## CCN(Cc1ccc(-c2noc(C(F)(F)F)n2)cc1)C(=O)C(C)C [B.03, N-ethyl-2-methyl-N-[[4-[5-(trifluoromethyl)-1,2,4-oxadiazol-3-yl]phenyl]methyl]propanamide]
  inhibition at 0.4 g/ha: 21%
  inhibition at 0.8 g/ha: 55%

## CCOC(=O)c1cnn(Cc2ccc(-c3noc(C(F)(F)F)n3)cc2)c1 [B.10, ethyl 1-[[4-[5-(trifluoromethyl)-1,2,4-oxadiazol-3-yl]phenyl]methyl]pyrazole-4-carboxylate]
  inhibition at 0.4 g/ha: 55%

## CON(Cc1ccc(-c2noc(C(F)(F)F)n2)cc1)C(=O)C1CC1 [B.01, N-methoxy-N-[[4-[5-(trifluoromethyl)-1,2,4-oxadiazol-3-yl]phenyl]methyl]cyclopropanecarboxamide]
  inhibition at 0.8 g/ha: 65%

## COC(C)C(=O)N(Cc1ccc(-c2noc(C(F)(F)F)n2)cc1)OC (stereo not shown) [B.02, N,2-dimethoxy-N-[[4-[5-(trifluoromethyl)-1,2,4-oxadiazol-3-yl]phenyl]methyl]propanamide]
  inhibition at 0.4 g/ha: 64%

## CNC(=O)N(Cc1ccc(-c2noc(C(F)(F)F)n2)cc1)OC [B.04, 1-methoxy-3-methyl-1-[[4-[5-(trifluoromethyl)-1,2,4-oxadiazol-3-yl]phenyl]methyl]urea]
  inhibition at 0.4 g/ha: 44%
